The NIST ThermoML archive (doi:10.1016/j.jct.2008.01.018)
Numbers after ± are expanded uncertainties.

Test: refractive index (Na D-line) (dimensionless); mn = molality of the nth substance listed, in mol/kg
Details: 298.15 K, 101 kPa, Liquid, Standard Abbe refractometry

O=P([O-])(O)O.[Na+] [sodium dihydrogen phosphate] + O
Details	refractive index
m1 = 0.0207	1.3331 ± 0.0027
m1 = 0.0415	1.3334 ± 0.0027
m1 = 0.0697	1.3338 ± 0.0027
m1 = 0.1051	1.3342 ± 0.0027
m1 = 0.1397	1.3351 ± 0.0027
m1 = 0.1901	1.3357 ± 0.0027
m1 = 0.2357	1.3363 ± 0.0027
m1 = 0.2947	1.3373 ± 0.0027
m1 = 0.3516	1.3382 ± 0.0027
m1 = 0.433	1.3393 ± 0.0027
m1 = 0.5113	1.3405 ± 0.0027
m1 = 0.5842	1.3416 ± 0.0027
m1 = 0.653	1.3425 ± 0.0027
m1 = 0.6999	1.3432 ± 0.0027
m1 = 0.7919	1.3442 ± 0.0027
m1 = 0.9206	1.3459 ± 0.0027
m1 = 1.175	1.3491 ± 0.0027
m1 = 1.18	1.3491 ± 0.0027
m1 = 1.447	1.3524 ± 0.0027
m1 = 1.794	1.3565 ± 0.0027
m1 = 2.079	1.3597 ± 0.0027
m1 = 2.396	1.3629 ± 0.0027
m1 = 2.398	1.3627 ± 0.0027
